d = 2'-deoxy (DNA); r = 2'-OH (RNA)
Key:
Format in all cases: cell-based, human
TCTP [1] = assay: ASO sequences screening: TCTP expression by western blot and/or qRT-PCR; conditions: WB and/or qRT-PCR, PC-3 cells overexpressing TCTP
Protocol: (§1) Western Blot analysis was performed as described previously (Rocchi et al., 2004, Cancer Res. 64:6595-602) with 1:5000 rabbit anti-Hsp27 polyclonal antibody (Assay Designs, Villeurbanne, France), 1:2000 rabbit TCTP polyclonal antibody (Abcam Inc., Cambridge, UK), 1:250 rabbit anti-MSL1v1 polyclonal antibody (Abcam Inc.), 1:500 mouse anti-ubiquitin monoclonal antibody (Santa Cruz Biotechnology Inc., Heidelberg, Germany) or 1:1000 rabbit anti-caspase-3 polyclonal antibody (Cell Signalling Technology Inc., Danvers, USA). Loading levels were normalized using 1:5000 rabbit anti-glyceraldehyde-3-phosphate dehydrogenase polyclonal (Abcam Inc.) or 1:2500 mouse anti-vinculine monoclonal antibodies (Sigma Chemical Co., St Louis, Mo., USA).
The quantitative reverse transcription polymerase chain reaction (qRT-PCR) analysis was done on a LightCycler detection system (Roche Applied Science, Meylan, France). Expression levels of 18S subunit of the ribosome gene were used as an internal control. First strand cDNA was synthesized from 1 μg of total RNA using random hexamers and expanded by reverse transcriptase according to the manufacturer's instructions (ImProm-II Reverse Transcription System, Promega, Charbonniéres-les-Bains, France), subsequently diluted 1:10 with water, and stored at −20° C. until use. TCTP and 18S polymerase chain reaction (PCR) products were detected by quantitative real time PCR (qRT-PCR) using the SYBR Premix Ex Taq (Takara Bio Inc, St Germain en Laye, France) following the manufacturer's instructions. Five microliters of diluted cDNA template were mixed with 10 μl SYBR Premix Ex Taq (including Taq polymerase, reaction buffer, MgCl2, SYBR green I dye, and deoxynucleotide triphosphate mix) and 0.4 μM forward and reverse primers, in a final volume of 20 μl. The following primers were used: TCTP forward 5′-[…]-3′ (SEQ ID NO: 8) and TCTP reverse 5′-[…]-3′; (SEQ ID NO: 9); 18S forward 5′-[…]-3′ (SEQ ID NO: 10) and 18S reverse 5′-[…]-3′ (SEQ ID NO: 11). After an initial Taq activation for 10 seconds at 95° C., Light Cycler PCR was done using 55 cycles with the following cycling conditions: 95° C. for 5 seconds, 58° C. for 7 seconds, and 72° C. for 14 seconds. Each sample was analyzed in duplicate and the experiment was repeated three times. Results were analyzed using RealQuant data analysis software (Roche, Neuilly-sur-seine, France). The results analysis was done with the 2(-Delta Delta C(T)) Method (Livak K J. et al., 2001; Methods. 25:402-8).
In order to find a sequence ASO having an inhibiting effect on TCTP expression, 30 ASO sequences have been designed 26 of which are shown in table 1. Said 30 sequences cover the TCTP mRNA (accession number NM_003295). Using BLAST program, the specificity of said sequences has been studied. Among said 30 sequences, only 15 sequences have been identified as being specific for TCPT mRNA sequence (see table 1). The effect of said ASO sequences on TCTP expression was tested by western blot analysis (WB) and/or by quantitative reverse transcription polymerase chain reaction (qRT-PCR) on PC-3 cells overexpressing TCTP. WB and qRT-PCR were performed as exposed in example 1.

TCTP [2] = assay: TCTP protein level by Western blot in PC-3 cells treated with siRNA or ASO
Protocol: as §1, with “Mo., USA). […]” for “Mo., USA).”
To determine whether the inhibition of TCTP expression affects CR progression in vitro, ASO- or siRNA-induced inhibition of TCTP expression was determined by Western blot analysis. […] Total RNA was extracted and TCTP levels were analyzed by qRT-PCR. After the normalization of TCTP mRNA with 18S rRNA levels, results were analysed with the 2(-Delta Delta C(T)) Method (FIG. 5A). Each sample was analyzed in triplicate. ** differs from PC-3 transfected with control-siRNA (P≤0.01) and *** with ASO control (P≤0.001) using Statview software.

LNCaP-Hsp27 cells = assay: Crystal violet cell growth assay, LNCaP-Hsp27 cells
Protocol: In brief, cells were seeded in each well of 12-well microtiter plates (30 000 to 50 000 cells per well) and allowed to attach overnight. To study the effect of TCTP downregulation on apoptosis induced by docetaxel, PC-3 cells were transiently transfected the day after seeding with 5 nM of TCTP siRNA for 48 h or 100 nM of TCTP ASO for 72 h. Cells were then treated with 50 nM of docetaxel and MTT assays were performed after 24 h. To assess the effect of TCTP downregulation on Hsp27 cytoprotection, LNCaP-Mock and -Hsp27 cells were transiently transfected the day after seeding with 5 nM of TCTP siRNA for 48 h. The down- or upregulation of TCTP effect on LNCaP and C4-2 cell viability was realized after transient transfections with 100 nM of TCTP ASO or 0.02 μg/μl of pDEST-TCTP for 72 h and 48 h respectively. Cells were then treated with 1 nM of docetaxel in serum-free media (mimics androgen withdrawal in vitro) and crystal violet assays were performed the day after. Each assay was performed in triplicate.
To study the functional role of TCTP in CRPC, siRNA-induced inhibition of TCTP expression was used to determine whether the reduction of TCTP expression affects LNCaP-Mock and -Hsp27 cell growth after combined androgen withdrawal and docetaxel-chemotherapy treatment in vitro.
In order to study consequences of TCTP inhibition on cell survival after combined androgen withdrawal and docetaxel-chemotherapy treatment, cell viability of LNCaP-Mock and -Hsp27 was determined using crystal violet dye after 24 h treatment with 1 nM of docetaxel in serum-free media (mimics androgen withdrawal in vitro). […] After TCTP siRNA plus docetaxel in serum-free medium treatment (mimics androgen withdrawal in vitro), we found an 80% (**, P≤0.01) reduction in LNCaP-Hsp27 cell growth rate versus a 50% (**, P≤0.01) reduction in LNCaP-Mock compared to control.

5′-ACCAATGAGCGAGTCATCAA-3′ (phosphorothioate backbone, further chemistry not given here) [ASO10]
ability to inhibit TCTP expression (TCTP [1]): strong ability to inhibit TCTP expression
best ability to inhibit specifically TCTP expression (TCTP [1]): best ability to inhibit specifically TCTP expression
inhibition of TCTP protein (TCTP [2]; ASO at 100 nM): significant inhibition

5′-AACCCGUCCGCGAUCUCCCdGdG-3′ (AACCCGUCCGCGAUCUCCCGG; siRNA; sugars from the 5' end r19 d2, backbone not given here) [TCTP siRNA, from Qiagen]
inhibition of TCTP protein (TCTP [2]; siRNA at 5 nM): significant inhibition
cytoprotection to androgen withdrawal and docetaxel conferred by Hsp27 overexpression (LNCaP-Hsp27 cells; siRNA 5 nM): reversed the cytoprotection
reduction in LNCaP-Hsp27 cell growth rate (LNCaP-Hsp27 cells; siRNA 5 nM alone, compared with control): 50%
reduction in LNCaP-Hsp27 cell growth rate (LNCaP-Hsp27 cells; siRNA plus 1 nM docetaxel in serum-free medium, 24 h): 80%

Source: patent US10105384B2, “Nucleic acids targeting TCTP for use in the treatment of chemo- or hormone-resistant cancers” (INSTITUT NATIONAL DE LA SANTE ET DE LA RECHERCHE MEDICALE …, priority 2010, dated 2018)
